Assays:
[1] = Cytotoxicity against BALB mouse 3T3 cells after 48 hrs; assay type: cell-based; conditions: BALB 3T3 cells
NCI-H460 = test: Cytotoxicity against human H460 cells after 48 hrs; assay type: functional; conditions: NCI-H460, 48 h
DU-145 = test: Cytotoxicity against human DU145 cells after 48 hrs; assay type: functional; conditions: DU-145, 48 h
MCF7 = test: Cytotoxicity against human MCF7 cells after 48 hrs; assay type: functional; conditions: MCF7, 48 h
M14 = test: Cytotoxicity against human M14 cells after 48 hrs; assay type: functional; conditions: M14, 48 h
HT-29 = test: Cytotoxicity against human HT29 cells after 48 hrs; assay type: functional; conditions: HT-29, 48 h
PC-3 = test: Cytotoxicity against human PC3 cells after 48 hrs; assay type: functional; conditions: PC-3, 48 h
K562 = test: Cytotoxicity against human K562 cells after 48 hrs; assay type: functional; conditions: K562, 48 h
Trypanosoma cruzi = test: Antitrypanosomal activity against Trypanosoma cruzi Tulahuen C4 in african green monkey Vero cells after 120 hrs; assay type: functional, organism-based
Vero = test: Cytotoxicity against african green monkey Vero cells by MTT assay; assay type: cell-based; conditions: Chlorocebus sabaeus
[2] = Selectivity index, IC50 for african green monkey Vero cells to IC50 for Trypanosoma cruzi Tulahuen C4; assay type: functional

SMILES | GI50 at 48 h [1] | GI50 (NCI-H460) | GI50 (DU-145) | GI50 (MCF7) | GI50 (M14) | GI50 (HT-29) | GI50 (PC-3) | GI50 (K562) | IC50 (Trypanosoma cruzi) | IC50 (Vero) | Ratio IC50 [2]
COc1ccc(CCC(=O)c2c(O)cc(O)cc2OC)cc1 | > 206 µM | 128 µM | > 206 µM | 65.5 µM | 109 µM | > 206 µM | 59.9 µM | 22.8 µM | > 25 µM | – | –
COc1cc(O)c(C(=O)/C=C/c2ccc3c(c2)OCO3)c(OC)c1 | 39 µM | > 190 µM | > 190 µM | 140 µM | > 190 µM | > 190 µM | 118 µM | 18.9 µM | > 25 µM | – | –
C=CCOc1cc(OC)c(C(=O)/C=C/c2ccccn2)c(OCC=C)c1 | – | – | – | – | – | – | – | – | 1.9 µM | 2.8 µM | 1.5
C=CCOc1cc(OC)c(C(=O)/C=C/c2ccc[nH]2)c(OCC=C)c1 | – | – | – | – | – | – | – | – | > 100 µM | – | –
C=CCOc1cc(OC)c(C(=O)/C=C/c2ccco2)c(OCC=C)c1 | – | – | – | – | – | – | – | – | 12.2 µM | – | 15.6
C=CCOc1cc(OC)c(C(=O)/C=C/c2ccncc2)c(OCC=C)c1 | – | – | – | – | – | – | – | – | 1.5 µM | 2.8 µM | 1.9
C=CCOc1cc(OC)c(C(=O)/C=C/c2ccc(C(F)(F)F)cc2)c(OCC=C)c1 | – | – | – | – | – | – | – | – | 15.6 µM | 7.2 µM | 0.5
C=CCOc1cc(OC)c(C(=O)/C=C/c2ccc(F)cc2)c(OCC=C)c1 | – | – | – | – | – | – | – | – | 14.3 µM | 13.6 µM | 0.9
C=CCOc1cc(OC)c(C(=O)/C=C/c2cc(OC)c(OC)c(OC)c2)c(OCC=C)c1 | – | – | – | – | – | – | – | – | 3.4 µM | 40.9 µM | 12
C=CCOc1cc(OC)c(C(=O)/C=C/c2ccc(C)cc2)c(OCC=C)c1 | – | – | – | – | – | – | – | – | 17.2 µM | – | 12.3
C=CCOc1cc(OC)c(C(=O)/C=C/c2cccc(OC)c2)c(OCC=C)c1 | – | – | – | – | – | – | – | – | 14.2 µM | – | 9.9
C=CCOc1cc(OC)c(C(=O)/C=C/C=C/c2ccccc2)c(OCC=C)c1 | – | – | – | – | – | – | – | – | > 25 µM | – | –
COc1cc(O)c(C(=O)CCc2ccc3c(c2)OCO3)c(OC)c1 | 21.5 µM | 105 µM | 60.2 µM | 42.4 µM | 82 µM | 145 µM | 39.1 µM | 28.2 µM | > 100 µM | – | –
COc1ccc(/C=C/C(=O)c2c(O)cc(O)cc2OC)cc1 | 6.7 µM | 14 µM | 9 µM | 17.3 µM | 19.6 µM | 21.6 µM | 19.3 µM | 17 µM | > 25 µM | – | –
C=CCOc1cc(OC)c(C(=O)/C=C/c2ccc(O)c(OC)c2)c(OCC=C)c1 | – | – | – | – | – | – | – | – | > 25 µM | – | –
C=CCOc1cc(OC)c(C(=O)/C=C/c2ccccc2)c(OCC=C)c1 | – | – | – | – | – | – | – | – | 17.1 µM | 17.1 µM | 1
C=CCOc1cc(OC)c(C(=O)/C=C/c2ccccc2F)c(OCC=C)c1 | – | – | – | – | – | – | – | – | 6.2 µM | 16.3 µM | 2.6
C=CCOc1cc(OC)c(C(=O)/C=C/c2ccccc2Br)c(OCC=C)c1 | – | – | – | – | – | – | – | – | 13.9 µM | 13.9 µM | 1
C=CCOc1cc(OC)c(C(=O)/C=C/c2ccc([N+](=O)[O-])cc2)c(OCC=C)c1 | – | – | – | – | – | – | – | – | 4.1 µM | 12.6 µM | 3.1
C=CCOc1cc(OC)c(C(=O)/C=C/c2cc(OCC=C)c(Br)c(OCC=C)c2)c(OCC=C)c1 | – | – | – | – | – | – | – | – | 6.9 µM | 96.3 µM | 13.9
COc1cc(O)cc(O)c1C(=O)/C=C/c1ccc2c(c1)OCO2 | 5.1 µM | 15.6 µM | 12.4 µM | 20.4 µM | 22.6 µM | 20.7 µM | 18.5 µM | 16.2 µM | 9.4 µM | 25.5 µM | 2.7
C=CCOc1cc(OC)c(C(=O)/C=C/c2ccc(OC)cc2OC)c(OCC=C)c1 | – | – | – | – | – | – | – | – | 13.1 µM | 92.6 µM | 7.1
C=CCOc1cc(OC)c(C(=O)/C=C/c2ccc(O)cc2)c(OCC=C)c1 | – | – | – | – | – | – | – | – | 20.3 µM | 76.4 µM | 3.8
C=CCOc1cc(OC)c(C(=O)/C=C/c2ccc(Cl)cc2)c(OCC=C)c1 | – | – | – | – | – | – | – | – | 8.6 µM | 10.4 µM | 1.2
COc1ccc(CCC(=O)c2c(O)cc(OC)cc2OC)cc1 | > 197 µM | > 197 µM | > 197 µM | > 197 µM | > 197 µM | > 197 µM | > 197 µM | > 197 µM | > 100 µM | – | –
C=CCOc1cc(OC)c(C(=O)/C=C/c2ccc3c(c2)OCO3)c(OCC=C)c1 | 31.7 µM | 14.5 µM | 17.5 µM | 10.9 µM | 17.2 µM | 24.1 µM | 9.6 µM | 12.2 µM | 13.6 µM | 73.5 µM | 5.4
C=CCOc1cc(OC)c(C(=O)/C=C/c2ccc(OC)cc2)c(OCC=C)c1 | 41 µM | 20 µM | 21 µM | 19.5 µM | 27.6 µM | 28.4 µM | 18.1 µM | 16.6 µM | 21.4 µM | 99.9 µM | 4.7
COc1ccc(/C=C/C(=O)c2c(O)cc(OC)cc2OC)cc1 [FLAVOKAWAIN A] | 17.2 µM | 24.1 µM | 30.8 µM | 17.5 µM | 22.5 µM | 45.3 µM | 15.2 µM | 20.5 µM | > 25 µM | – | –
O=c1[nH]cc(F)c(=O)[nH]1 [FLUOROURACIL] | < 1.54 µM | 4.1 µM | 15.4 µM | 6.5 µM | 22.4 µM | 8.9 µM | 14.6 µM | 16.7 µM | – | – | –
CC1CS(=O)(=O)CCN1/N=C/c1ccc([N+](=O)[O-])o1 (stereo unspecified) [NIFURTIMOX] | – | – | – | – | – | – | – | – | 0.52 µM | 80.1 µM | 154

— ChEMBL document CHEMBL1140122 (J Med Chem, 2008)
